# From patent EP0503079A1, “PYRIDAZINONE-SUBSTITUTED ETHYNYLPHENYL DERIVATIVE AND REMEDY FOR CIRCULATORY ORGAN DISEASE CONTAINING THE SAME AS ACTIVE INGREDIENT” (KAKEN PHARMACEUTICAL CO., LTD., priority 1990, dated 1992)
# Key:
# [1] = system: Slc: ddy male mice; assay: Activity on stress ulcers (restraint and water immersion); type: in vivo; details: length of ulcer in glandular stomach; 30 mg/kg orally; restrained and immersed in water of 23°C for 7 hours
# Description: In each group, 5 Slc: ddy male mice (6 weeks) were employed. Each test compound was kneaded with Tween-80 followed by adding a 0.5 % solution of gum arabic to prepare 30 mg/10 mℓ solution (solution containing 1.5 % Tween-80 and 0.5 % gum arabic). Then, the preparation was administered orally in a rate of 30 mg/kg. After the administration, the mice were restrained and immersed in a water tank of 23°C for 7 hours. Then, length of the ulcer in the glandular stomach was measured by a stereoscopic microscope (x 10).
# [2] = system: Slc-ddy male mice; assay: Activity on hypoxia induced in decapitation of mice (gasping time); type: in vivo; set-up: dose or concentration left out as unconfirmed; details: gasping time after decapitation, one hour after oral administration
# Description: In each group, 3 Slc-ddy male mice (4 weeks) were employed. Each test compound was suspended or dissolved in a 0.5 % methyl cellulose solution. After the concentration was adjusted, the dose became […], the solution was administered orally. One hour after the administration, mice were decapitated and gasping time was measured.
# (§1) Inhibition rate was calculated by the following formula. [formula]
# [3] = system: platelet aggregation; assay: Inhibitory activity on platelet aggregation (turbidimetry); type: cell-based, New Zealand White male rabbits; details: for Inhibition rate (%) ADP aggregation: 0.6 µg/mℓ ADP; for Inhibition rate (%) PAF aggregation: 5 x 10⁻⁹M PAF; for Inhibition rate (%) Collagen aggregation: 2 µg/mℓ collagen
# Description: Blood was exsanguinated from New Zealand White male rabbits weighing from 2.5 to 3.0 kg and subjected to the test. Each test compound was dissolved in ethanol and prepared to be 1 x 10⁻⁵, 1 x 10⁻⁶ or 1 x 10⁻⁷M respectively. Each aggregation response was measured by turbidimetry. Concentration of aggregating agent was 2 µg/mℓ of collagen, 0.6 µg/mℓ of adenosine 5'-diphosphate (ADP) or 5 x 10⁻⁹M of platelet aggregating factor (PAF).
# as §1
# [4] = system: Aortae abdominalis of male Wister rats; assay: Anti-norepinephrine activity on rat abdominal aorta strip preparations (auto-Magnus apparatus); details: tension by norepinephrine (10⁻⁷M) regarded as 100
# Description: Aortae abdominalis of male Wister rats (8-12 weeks) were delivered and cut in spiral-shape to be strip preparations. Each test compounds was disolved in DMSO. Then, the solution was diluted with distilled water and prepared to be desired concentration. Using an auto-Magnus apparatus, as to the vasoconstriction after adding norepinephrine, contractive forces were measured under the existence of the test compounds.
# [5] = system: Slc: ddy male mice; assay: Acute toxicity; type: in vivo; details: oral administration, death rate after 7 days
# Description: (§2) In each group, 6 Slc: ddy male mice weighing 25 to 29 g (6 weeks) were employed. Each compound was administered orally thereto and a value of acute toxicity was evaluated with death rate after 7 days.
# [6] = Acute toxicity; type: in vivo, mice; details: mouse, in vivo; oral administration, death rate after 7 days; read-out: LD₅₀
# Description: as §2
molecule,measurement,setting,value
"2,6-dimethyl-4-(3-ethynylphenyl)-3-methoxycarbonyl-5-{4-(6-oxo-1,4,5,6-tetrahydropyridazinon-3-yl)phenyl}aminocarbonyl-1,4-dihydropyridine [Compound 1]",Inhibition rate (%),[1],83.0%
same,Inhibition rate (%),[2],28.6%
same,Inhibition rate (%) ADP aggregation,[3]; compound 10⁻⁵ M,94%
same,Inhibition rate (%) PAF aggregation,[3]; compound 10⁻⁵ M,64%
same,Inhibition rate (%) ADP aggregation,[3]; compound 10⁻⁶ M,70%
same,Inhibition rate (%) Collagen aggregation,[3]; compound 10⁻⁶ M,94%
same,Inhibition rate (%) ADP aggregation,[3]; compound 10⁻⁷ M,21%
same,Inhibition rate (%) Collagen aggregation,[3]; compound 10⁻⁷ M,21%
same,Contractive force,[4]; compound 10⁻⁷ M,15.7
same,Contractive force,[4]; compound 10⁻⁸ M,87.4
same,Contractive force,[4]; compound 10⁻⁹ M,102.8
same,LD₅₀,[5],1000 mg/kg
"2,6-dimethyl-4-{3-(3-hydroxy-3-methyl)-1-butyn-1-yl)}phenyl-3-methoxycarbonyl-5-{4-(6-oxo-1,4,5,6-tetrahydropyridazinon-3-yl)phenyl}aminocarbonyl-1,4-dihydropyridine [Compound 7]",Inhibition rate (%),[1],88.8%
same,Inhibition rate (%),[2],19.1%
same,Inhibition rate (%) ADP aggregation,[3]; compound 10⁻⁵ M,89%
same,Inhibition rate (%) PAF aggregation,[3]; compound 10⁻⁵ M,40%
same,Inhibition rate (%) ADP aggregation,[3]; compound 10⁻⁶ M,73%
same,Inhibition rate (%) Collagen aggregation,[3]; compound 10⁻⁶ M,92%
same,Inhibition rate (%) ADP aggregation,[3]; compound 10⁻⁷ M,24%
same,Inhibition rate (%) Collagen aggregation,[3]; compound 10⁻⁷ M,25%
same,Contractive force,[4]; compound 10⁻⁷ M,16.3
same,Contractive force,[4]; compound 10⁻⁸ M,89.2
same,Contractive force,[4]; compound 10⁻⁹ M,100.3
same,LD₅₀,[5],800 mg/kg
"2,6-dimethyl-4-{3-(4-hydroxy-1-butyn-1-yl)}phenyl-3-methoxycarbonyl-5-{4-(6-oxo-1,4,5,6-tetrahydropyridazinon-3-yl)phenyl}aminocarbonyl-1,4-dihydropyridine [Compound 6]",Inhibition rate (%),[2],21.5%
same,Inhibition rate (%) ADP aggregation,[3]; compound 10⁻⁵ M,93%
same,Inhibition rate (%) PAF aggregation,[3]; compound 10⁻⁵ M,69%
same,Inhibition rate (%) ADP aggregation,[3]; compound 10⁻⁶ M,68%
same,Inhibition rate (%) Collagen aggregation,[3]; compound 10⁻⁶ M,93%
same,Inhibition rate (%) ADP aggregation,[3]; compound 10⁻⁷ M,22%
same,Inhibition rate (%) Collagen aggregation,[3]; compound 10⁻⁷ M,22%
same,Contractive force,[4]; compound 10⁻⁷ M,10.8
same,Contractive force,[4]; compound 10⁻⁸ M,70.2
same,Contractive force,[4]; compound 10⁻⁹ M,90.5
same,LD₅₀,[5],950 mg/kg
"CCOC(=O)C1=C(C)NC(C)=C(C(=O)Nc2ccc(C3=NNC(=O)CC3)cc2)C1c1cc(C#CC(C)(C)O)ccc1OC (centres unmarked) [Compound 17, 2,6-dimethyl-4-{3-(3-hydroxy-3-methyl)-1-butyn-1-yl-6-methoxy}phenyl-3-ethoxycarbonyl-5-{4-(6-oxo-1,4,5,6-tetrahydropyridazinon-3-yl)phenyl}aminocarbonyl-1,4-dihydropyridine]",Inhibition rate (%),[1],79.3%
same,Inhibition rate (%),[2],25.8%
same,Inhibition rate (%) ADP aggregation,[3]; compound 10⁻⁵ M,82%
same,Inhibition rate (%) PAF aggregation,[3]; compound 10⁻⁵ M,49%
same,Inhibition rate (%) ADP aggregation,[3]; compound 10⁻⁶ M,62%
same,Inhibition rate (%) Collagen aggregation,[3]; compound 10⁻⁶ M,100%
same,Inhibition rate (%) ADP aggregation,[3]; compound 10⁻⁷ M,18%
same,Inhibition rate (%) Collagen aggregation,[3]; compound 10⁻⁷ M,30%
same,Contractive force,[4]; compound 10⁻⁷ M,8.9
same,Contractive force,[4]; compound 10⁻⁸ M,70.1
same,Contractive force,[4]; compound 10⁻⁹ M,87.7
same,LD50 at 168 h,[6],1000 mg/kg
"C#Cc1cccc(C2C(C(=O)Nc3ccc(C4=NNC(=O)CC4CC)cc3)=C(C)NC(N)=C2C(=O)OCCOC)c1 (centres unmarked) [Compound 25, 2-amino-4-(3-ethynylphenyl)-3-methoxyethoxycarbonyl-6-methyl-5-{4-(4-ethyl-6-oxo-1,4,5,6-tetrahydropyridazinon-3-yl)phenyl}aminocarbonyl-1,4-dihydropyridine]",Inhibition rate (%),[1],94.3%
same,Inhibition rate (%),[2],28.3%
same,Inhibition rate (%) ADP aggregation,[3]; compound 10⁻⁵ M,90%
same,Inhibition rate (%) PAF aggregation,[3]; compound 10⁻⁵ M,62%
same,Inhibition rate (%) ADP aggregation,[3]; compound 10⁻⁶ M,69%
same,Inhibition rate (%) Collagen aggregation,[3]; compound 10⁻⁶ M,91%
same,Inhibition rate (%) ADP aggregation,[3]; compound 10⁻⁷ M,29%
same,Inhibition rate (%) Collagen aggregation,[3]; compound 10⁻⁷ M,30%
same,Contractive force,[4]; compound 10⁻⁷ M,12.1
same,Contractive force,[4]; compound 10⁻⁸ M,70.9
same,Contractive force,[4]; compound 10⁻⁹ M,91.5
same,LD50 at 168 h,[6],1000 mg/kg
